This note sets out measurements from patent US9057725B2, “Composition for diagnosing, treating, and preventing liver disease” (SNU R&DB Foundation, priority 2010, dated 2015).

“Also recorded” adds a separate entry of the source.

Series [1] concerns TM4SF5 expression. The series is described as follows: TGFβ mediated TM4SF5 expression in AML12 cells with EGFR inhibitor, Western blotting and optical microscope. Type of series: cell-based, mouse. As to the method: Particularly, AML12 cells were cultured in DMEM supplemented with 10% FBS, which were then washed with serum-free DMEM. The cells were maintained as serum-free status for 4 hours. After serum starvation, the cells were treated with DMSO (control vehicle) and AG1478 (100 nM) 30 minutes before the treatment of TGFβ (2.5 ng/ml) in order to inhibit EGFR signaling. After the treatment of TGFβ (R&D systems, Minneapolis, Minn., USA), the cells were further cultured for 24 more hours.
Western blotting was performed with antibodies against phospho-Y^1173EGFR (Santa Cruz Biotechnology, Santa Cruz, Calif.), phospho-Y^992EGFR (Cell Signaling Technology, Danvers, Mass.), phospho-Erk (Cell Signaling Technology, Danvers, Mass.), phospho-Smad2 (Cell Signaling Technology, Danvers, Mass.), phospho-Smad3 (Cell Signaling Technology, Danvers, Mass.), TM4SF5, and α-tubulin (Sigma-Aldrich) to investigate the expressions of TM4SF5 and EGFR signal transduction system related factors.
(2) AML12 cells were cultured in DMEM supplemented with 10% FBS, which were then washed with serum-free DMEM. The cells were maintained as serum-free status for 4 hours. After serum starvation, the cells were treated with various inhibitors such as PD98059 (MEK inhibitor, LC Laboratories, Woburn, Mass.), LY294002 (PI3K inhibitor), PP2, PP3 (src inhibitor, Tocris Cookson, Avonmouth, UK), Rapamycin (mTOR inhibitor), GF109203 (PKC inhibitor, Calbiochem, San Diego, Calif.), AG1478 (EGFR inhibitor, LC Laboratories, Woburn, Mass.), U0126 (ERK1/2 inhibitor, LC Laboratories, Woburn, Mass.), SP600125 (Jnk inhibitor), and Y-27632 (ROCK inhibitor, Calbiochem, San Diego, Calif.) 30 minutes before the treatment of TGFβ (2.5 ng/ml). Then, TM4SF5 expression was examined. As a result, TM4SF5 expression was reduced by AG1478 under the near death condition (the condition in which phospho-Y^397 FAK level was high) (FIG. 8).
For orientation: In western blotting, separated proteins are transferred to a membrane and probed.

For series [2], the system named is TM4SF5 expression. The experiment in a line: TM4SF5 expression mediated by conditioned medium of LX2 cells in AML12 cells with AG1478. Type of series: cell-based, mouse. As to conditions: AG1478 100 nM, 24 hours. On the procedure: Particularly, one hour before the treatment of conditioned medium of LX2 cells to AML12 cells, AG1478 (100 nM) was added to the medium to inhibit EGFR kinase activity, leading to the suppression of EGFR signaling, which was then treated to AML12 cells, followed by further culture for 24 hours.

In series [3] the test system is TM4SF5 expression. The series is described as follows: TGFβ mediated TM4SF5 expression in Chang cells infected with Smad adenoviruses with AG1478. Format: cell-based, human. The note with it: group treated with Smad2 and Smad4 adenoviruses, AG1478 1 hour before TGFβ, 24 hours. On the procedure: In addition, Chang cells were infected with Smad2, Smad3, and Smad4 adenoviruses for 24 hours, followed by serum starvation for 24 hours. After serum starvation, the cells were treated with AG1478 1 hour before the treatment of TGFβ in order to inhibit EGFR signaling. After the treatment of TGFβ, the cells were further cultured for 24 more hours. Then, the protein in the cell extract was quantified, followed by Western blotting. As a result, it was confirmed that TGFβ mediated TM4SF5 expression was reduced by AG1478 in the group treated with Smad2 and Smad4 adenoviruses.

The test system of series [4] is human TM4SF5 promoter. The series is described as follows: Luciferase reporter gene assay with TM4SF5 promoter in Huh7, HepG2 and SNU16mAd cells. Type of series: cell-based. As to the method: Particularly, Huh7 and HepG2 (liver cancer cell lines), and SNU16mAd (stomach cancer cell line) were transfected with pBabe-galactosidase (Choi et al., 2009, Blood 113:1845-1855) containing pGL3-human TM4SF5 promoter prepared by inserting genomic fragment of TM4SF5 upstream promoter located approximately −3 kb ahead of TM4SF5 gene in pGL3 luciferase vector (Promega), followed by harvesting 24 hours later. Then, luciferase activity of the reporter gene was measured. Infection efficiency was confirmed by measuring beta-galactosidase activity, followed by quantification after normalization. […] Unlike pGL3-TM4SF5 that was the construct harboring TM4SF5 promoter region whose transcriptional activity could be confirmed, pGL3-basic was the construct without the promoter, meaning transcription would not be activated, which was thereby used as the control (FIG. 2).
Background: In a reporter assay the amount or activity of a reporter protein is the signal.

For series [5], the system named is AML12 cells. The experiment in a line: TM4SF5 expression and EMT induced by TGFβ in AML12 cells. Format: cell-based, mouse. As to the method:
(§1) AML12 cells (ATCC, USA), the normal mouse hepatocytes, and Chang cells (ATCC, USA), the normal human hepatocytes, cultured in DMEM supplemented with 10% FBS were washed with serum-free DMEM, which were maintained as serum-free status for 4 hours. After serum starvation, the cells were treated with TGFβ (2.5 ng/ml), followed by further culture for 24 hours. At last, cell extracts were prepared.
TM4SF5 protein expression was increased in those extracts, confirmed by immunoblotting and immunofluorescence assay using antibodies against pSmad3, pSmad2 (Cell Signaling Technology, Danvers, Mass.), vimentin (Sigma-Aldrich), E-adherin (Santa Cruz Biotechnology, Santa Cruz, Calif.), and TM4SF5 (Sin-Ae Lee et al., J. Clin. Invest. 2008 April; 118(4):1354-66). The nucleotide sequence of TM4SF5 antibody was confirmed by using pGEX-5X2 vector (Amersham) comprising c-terminal of TM4SF5 (the region from the 229th nucleotide residue to the 594th nucleotide residue, digested with EcoR1). To obtain recombinant protein induced by IPTG from DH5a bacteria, PBS comprising 0.3% SDS and protease inhibitor was used. After protein extraction, antigen was extracted from electrophoresed SDS gel, followed by immunizing mice with that. After immune response was induced three times in total, serum was obtained from the mice. Immunoreactivity of the serum with recombinant protein and animal cell extract was investigated.
As a result, as shown in FIG. 3 and FIG. 5, when AML12 cells were treated with TGFβ, TM4SF5 expression was increased. In addition, EMT (epithelial-mesenchymal transition) was induced by the increases of α-SMA and vimentin and the decrease of E-cadherin. It was also confirmed by immunoblotting that the expression of E-cadherin, which is important for cell-cell contact, was reduced, but the expression of vimentin, the mesenchymal cell marker, was increased. In the meantime, according to immunofluorescence assay, the cells were placed on cover glass coated with fibronectin (10 μg/ml) to perform immunofluorescence staining, followed by treating with TGFβ. Upon completion of immunofluorescence staining with vimentin antibody, the cover glass was observed under fluorescence microscope. As a result, vimentin expression was increased, compared with the control treated with vehicle (PBS, phosphate saline buffer) only without TGFβ, and EMT was confirmed by dispersed cell pattern (FIG. 3).

The test system of series [6] is Chang cells. The series is described as follows: TM4SF5 expression and EMT induced by TGFβ in Chang cells. Format: cell-based, human. As to the method:
as §1
Chang cells, the normal human hepatocytes, were treated with TGFβ, followed by immunoblotting. As a result, it was confirmed that TM4SF5 expression was induced. From the comparison of cellular morphology, it was also confirmed that cell-cell contact became weak, compared with the control treated with vehicle (PBS) only without TGFβ, and EMT was induced, and the expression of α-SMA, the mesenchymal cell marker, was increased (FIG. 4).
In addition, Chang cells, the normal human hepatocytes, were treated with TGFβ at different concentrations of 0, 2.5 and 5 ng/ml, followed by immunoblotting. […] EGFR signal transduction system was also activated, confirmed by using antibodies against phospho-Y^1173EGFR (Santa Cruz Biotechnology, Santa Cruz, Calif.), EGFR (Santa Cruz Biotechnology, Santa Cruz, Calif.), phospho-Erk, phospho-Smad2, phospho-Smad3 (Cell Signaling Technology, Danvers, Mass.), and α-tubulin (Sigma-Aldrich) (FIG. 5).

The subject of series [7] is Chang cells. The experiment in a line: TM4SF5 expression and EGFR signal transduction system over treatment times of TGFβ and EGF in Chang cells. Format: cell-based, human. The note with it: TGFβ (2.5 ng/ml) and EGF (50 ng/ml), 0, 0.5, 1, 2, and 24 hours. As to the method:
Chang cells were cultured in DMEM supplemented with 10% FBS, which were then washed with serum-free DMEM. The cells were maintained as serum-free status for 4 hours. […] Then, TM4SF5 expression and EGFR signal transduction system were investigated.

Where [8] appears, read: Chang cells, 0, 2.5 and 5 ng/ml.

`COc1cc2ncnc(Nc3cccc(Cl)c3)c2cc1OC` [AG1478]: the “cell-cell contact (TGFβ mediated cell dispersion, cell morphology change)” value in series [1] (AML12 cells, AG1478 100 nM, TGFβ 2.5 ng/ml, optical microscope) is listed as “maintained; also recorded: suppressed”. The “TGFβ mediated TM4SF5 expression” value is “decreased; also recorded: reduced; also recorded: suppressed” in series [1] (AML12 cells, inhibitor 30 minutes before TGFβ (2.5 ng/ml), AG1478 100 nM, 24 hours) and “reduced” in series [3]. In addition, in series [1] (suppression of EGFR activation by AG1478), the “TGFβ signaling Smad2 activation” value is “did not affect”. In series [2], the “TM4SF5 expression mediated by conditioned medium of LX2 cells” value was “reduced; also recorded: not increased any more”.
As to “TGFβ: transforming growth factor β, a multi-functional cytokine (R&D systems)”, the “transcriptional activity of TM4SF5 promoter region (luciferase)” value in series [4] was “increased”. Also, in series [5] (TGFβ 2.5 ng/ml, 24 hours), the “EMT (epithelial-mesenchymal transition)” value was “induced” and the TM4SF5 expression result is reported as “increased”. In addition, in series [5] (immunoblotting), the E-cadherin expression result is reported as “reduced” and the vimentin expression result was “increased”. For the same molecule, the α-SMA expression entry in series [6] (Chang cells) is “increased”. Moreover, in series [6] (setting [8]), the “EGFR signal transduction system” value is reported as “activated” and the “TM4SF5 protein expression at different TGFβ concentrations” value was “increased TGFβ dose-dependently”. Moreover, in series [6] (Chang cells, compared with vehicle (PBS)), the cell-cell contact result is recorded as “became weak”. Further, in series [6] (Chang cells, immunoblotting), the TM4SF5 expression entry is recorded as “induced”. In addition, in series [7], the “EGFR signal transduction system activation and TM4SF5 expression over time” value is recorded as “induced continuously”.
